Patent US5120751A, “Benzoylphenyl pyridinylthiazolidine compounds as platelet activating antagonists” (Abbott Laboratories, priority 1991, dated 1992)
Where a name gives a salt, the structure may show the parent alone.

Target: PAF receptor (Oryctolagus cuniculus, UniProt G1TEI7)
Assay: PAF receptor binding assay: inhibition of specific [3H]C18-PAF binding to rabbit platelet membranes
Details: 0.6 nM [3H]C18-PAF, 60 minutes at 22-23 °C, pH 7.0, Ki calculated from IC50 (Cheng and Prusoff)

Sequence of PAF receptor (G1TEI7 1-342): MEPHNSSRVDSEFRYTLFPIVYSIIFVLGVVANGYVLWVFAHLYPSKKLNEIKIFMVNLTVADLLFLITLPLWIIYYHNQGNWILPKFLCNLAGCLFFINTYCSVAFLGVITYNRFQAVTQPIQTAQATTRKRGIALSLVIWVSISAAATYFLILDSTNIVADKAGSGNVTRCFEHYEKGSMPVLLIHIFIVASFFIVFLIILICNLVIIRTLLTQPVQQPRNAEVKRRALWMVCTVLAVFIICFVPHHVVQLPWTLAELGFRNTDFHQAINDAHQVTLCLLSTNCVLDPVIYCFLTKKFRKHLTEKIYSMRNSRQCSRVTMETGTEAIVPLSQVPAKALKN

Row | Ki | Structure (SMILES)
1 | 0.001 µM | COc1cc(C(=O)c2cccc(NC(=O)C3CSC(c4cccnc4)N3)c2)cc(OC)c1OC (stereo not drawn) [Example 4, N-[3-(3,4,5-trimethoxybenzoyl)phenyl] 2-(3-pyridinyl)-4-thiazolidinecarboxamide dihydrochloride]
2 | 1.3 µM | O=C(Nc1cccc(C(=O)c2ccccc2)c1)NC1CSC(c2cccnc2)S1 (stereo not drawn) [Example 17a, N-(3-benzoylphenyl) N'-[2-(3-pyridinyl)dithiolan-4-yl] urea]
3 | 0.65 µM | COc1cc(C(=O)c2cccc(NC(=O)NC3CSC(c4cccnc4)S3)c2)cc(OC)c1OC (stereo not drawn) [Example 18a, N-[3-(3,4,5-trimethoxybenzoyl)phenyl] N'-[2-(3-pyridinyl)dithiolan-4-yl] urea]
4 | 2.2 µM | COc1cc(C(=O)c2cccc(N(C)C(=O)NC3CSC(c4cccnc4)S3)c2)cc(OC)c1OC (stereo not drawn) [Example 20b, N-methyl-N-[3-(3,4,5-trimethoxybenzoyl)phenyl] N'-[2-(3-pyridinyl)dithiolan-4-yl] urea]
5 | 0.26 µM | O=C(Nc1cccc(C(=O)c2ccccc2)c1)NC1CSC(c2cccnc2)S1 (stereo not drawn) [Example 17b, N-(3-benzoylphenyl) N'-[2-(3-pyridinyl)dithiolan-4-yl] urea]
6 | 2.6 µM | COc1cc(C(=O)c2cccc(N(C)C(=O)C3CSC(c4cccnc4)S3)c2)cc(OC)c1OC (stereo not drawn) [Example 16, N-[3-(3,4,5-trimethoxybenzoyl)phenyl] N-methyl 2-(3-pyridinyl)-4-dithiolanecarboxamide hydrochloride]
7 | 0.006 µM | COc1ccc(C(=O)c2cccc(NC(=O)C3CSC(c4cccnc4)N3)c2)cc1OC (stereo not drawn) [Example 8, N-[3-(3,4-dimethoxybenzoyl)phenyl] 2-(3-pyridinyl)-4-thiazolidinecarboxamide dihydrochloride]
8 | 0.57 µM | COc1cc(C(=O)c2cccc(NC(=O)C3CSC(c4cccnc4)S3)c2)cc(OC)c1OC (stereo not drawn) [Example 10, N-[3-(3,4,5-trimethoxybenzoyl)phenyl] 2-(3-pyridinyl)-4-dithiolanecarboxamide]
9 | 0.26 µM | COc1cc(C(=O)c2cccc(N(C)C(=O)NC3CSC(c4cccnc4)S3)c2)cc(OC)c1OC (stereo not drawn) [Example 20a, N-methyl-N-[3-(3,4,5-trimethoxybenzoyl)phenyl] N'-[2-(3-pyridinyl)dithiolan-4-yl] urea]
10 | 0.035 µM | COc1cc(C(=O)c2cccc(NC(=O)NC3CSC(c4cccnc4)S3)c2)cc(OC)c1OC (stereo not drawn) [Example 18b, N-[3-(3,4,5-trimethoxybenzoyl)phenyl] N'-[2-(3-pyridinyl)dithiolan-4-yl] urea]

Further lines, the molecule ahead of its results:

Row | Structure (SMILES) | Ki
11 | O=CN1C(C(=O)Nc2cccc(C(=O)c3ccccc3)c2)CSC1c1cccnc1 (stereo not drawn) [Example 11, N-(3-benzoylphenyl) 2-(3-pyridinyl)-3-formyl-4-thiazolidinecarboxamide] | 0.5 µM
12 | CN(C(=O)NC1CSC(c2cccnc2)S1)c1cccc(C(=O)c2ccccc2)c1 (stereo not drawn) [Example 19a, N-methyl-N-(3-benzoylphenyl) N'-[2-(3-pyridinyl)dithiolan-4-yl] urea] | 2.9 µM
13 | CC(C)(C)OC(=O)N1C(C(=O)Nc2cccc(C(=O)c3ccccc3)c2)CSC1c1cccnc1 (stereo not drawn) [Example 2, N-(3-benzoylphenyl) 2-(3-pyridinyl)-3-tert-butoxycarbonyl-4-thiazolidinecarboxamide] | 100 µM
14 | O=C(c1ccccc1)c1cccc(NC(=O)C2CCC(c3cccnc3)N2)c1 (stereo not drawn) [Example 21, N-(3-benzoylphenyl)-2-(3-pyridyl)-5-pyrrolidinecarboxamide] | 0.78 µM
15 | O=C(CC1CSC(c2cccnc2)N1)Nc1cccc(C(=O)c2ccccc2)c1 (stereo not drawn) [Example 13, N-(3-benzoylphenyl) 2-(3-pyridinyl)-thiazolid-4-ylacetamide] | 5.8 µM
16 | CNC(=O)N1C(C(=O)Nc2cccc(C(=O)c3ccccc3)c2)CSC1c1cccnc1 (stereo not drawn) [Example 12, N-(3-benzoylphenyl) 2-(3-pyridinyl)-3-(N-methylcarbamoyl)-4-thiazolidinecarboxamide] | 0.7 µM
17 | NC(=O)N1C(CC(=O)Nc2cccc(C(=O)c3ccccc3)c2)CSC1c1cccnc1 (stereo not drawn) [Example 14, N-(3-benzoylphenyl) 2-(3-pyridinyl)-3-carbamoylthiazolid-4-ylacetamide] | 0.15 µM
18 | COc1cc(OC)cc(C(=O)c2cccc(NC(=O)C3CSC(c4cccnc4)N3)c2)c1 (stereo not drawn) [Example 7, N-[3-(3,5-dimethoxybenzoyl)phenyl] 2-(3-pyridinyl)-4-thiazolidinecarboxamide dihydrochloride] | 0.002 µM
19 | O=C(c1ccccc1)c1cccc(NC(=O)C2CSC(c3cccnc3)N2)c1 (stereo not drawn) [Example 1, N-(3-benzoylphenyl) 2-(3-pyridinyl)-4-thiazolidine carboxamide] | 0.005 µM
20 | CN(C(=O)C1CSC(c2cccnc2)N1)c1cccc(C(=O)c2ccccc2)c1 (stereo not drawn) [Example 15, N-(3-benzoylphenyl) N-methyl 2-(3-pyridinyl)-4-thiazolidinecarboxamide dihydrochloride] | 0.62 µM
21 | CN(C(=O)NC1CSC(c2cccnc2)S1)c1cccc(C(=O)c2ccccc2)c1 (stereo not drawn) [Example 19b, N-methyl-N-(3-benzoylphenyl) N'-[2-(3-pyridinyl)dithiolan-4-yl] urea] | 7 µM
22 | O=C(c1ccccc1)c1cccc(NC(=O)C2CSC(c3cccnc3)S2)c1 (stereo not drawn) [Example 9, N-(3-benzoylphenyl) 2-(3-pyridinyl)-4-dithiolanecarboxamide] | 0.023 µM
23 | O=C(c1cccc(NC(=O)C2CSC(c3cccnc3)N2)c1)c1ccc2c(c1)OCO2 (stereo not drawn) [Example 6, N-[3-(3,4-methylenedioxybenzoyl)phenyl] 2-(3-pyridinyl)-4-thiazolidinecarboxamide dihydrochloride] | 0.033 µM
24 | COc1ccc(C(=O)c2cccc(NC(=O)C3CSC(c4cccnc4)N3)c2)cc1 (stereo not drawn) [Example 5, N-[3-(4-methoxybenzoyl)phenyl] 2-(3-pyridinyl)-4-thiazolidinecarboxamide dihydrochloride] | 0.034 µM
